Where two headings read alike, the source gives them in different places.
How the values were obtained:
human ENT1 [1] = target: T1, human ENT1 (Homo sapiens, UniProt Q99808); experiment: ENT1 binding assay (competition with Sahenta-DY647 on JAR cells); design: JAR cells expressing ENT1 were bought from ATCC; host or cells: JAR cells; conditions: binned IC50
T1 sequence (Q99808 1-456): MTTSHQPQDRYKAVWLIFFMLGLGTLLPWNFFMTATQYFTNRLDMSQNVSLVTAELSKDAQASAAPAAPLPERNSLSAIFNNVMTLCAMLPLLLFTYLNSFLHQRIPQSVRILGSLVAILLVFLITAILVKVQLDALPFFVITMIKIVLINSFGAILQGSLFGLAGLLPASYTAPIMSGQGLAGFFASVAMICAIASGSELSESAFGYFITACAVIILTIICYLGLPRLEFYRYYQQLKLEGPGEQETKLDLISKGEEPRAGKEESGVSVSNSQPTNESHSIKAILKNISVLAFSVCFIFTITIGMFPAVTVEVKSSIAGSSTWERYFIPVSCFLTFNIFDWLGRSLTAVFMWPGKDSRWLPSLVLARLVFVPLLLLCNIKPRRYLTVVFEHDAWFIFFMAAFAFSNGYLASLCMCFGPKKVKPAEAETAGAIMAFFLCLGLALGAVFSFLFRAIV
Procedure, shortened: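 JAR cells were incubated with test compounds and the fluorescent ligand Sahenta-DY647 in competition. Plates were washed twice by centrifugation (4 min, 400 rcf, 4 °C). Binding potency was derived from the final fluorescence.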

human ENT1 [2] = target: T1, human ENT1; experiment: Uridine transport inhibition assay (3H-uridine uptake, MDCKII-ENT1-LV cells); assay type: cell-based; conditions: 3H-uridine (1 μM), 1 min at 25° C.
Description: Purpose. The aim of this study was to determine the potency of equilibrative nucleoside transporter 1 (ENT1) inhibitors by measuring ENT1-mediated transport is the cellular uptake assay. The human ENT1 transporter can be stably expressed in Madin-Darby Canine Kidney II (MDCKII) cells via transduction. Uridine is efficiently transported by ENT1 and is used as probe in the assay as 3H-uridine. The interaction is detected as the modulation of the initial rate of 3H-uridine transport by human ENT1 into MDCKII-ENT1-LV cells stably expressing ENT1 uptake transporter.

[3] = test system: stimulated primary human T cells; experiment: T cell proliferation assay (rescue of proliferation in presence of 100 uM ATP); assay type: cell-based
Procedure: Purpose. The aim of this study was to determine the potency of equilibrative nucleoside transporter 1 (ENT1) inhibitors to rescue proliferation by stimulated primary human T cells incubated in the presence of 100 uM Adenosine triphosphate (ATP) with: • Condition A: X-VIVO15 • Condition B: X-VIVO15, 2% Human Serum Albumine (HSA) and 0.1% α-1-Acid Glycoprotein (AAG)
Method. Cryopreserved purified human CD3+ T cells were thawed and washed twice with RPMI1640 medium, UltraGlutamine containing 10% hiFBS.
Cells were suspended in PBS containing 10% hiFBS. Cells were stained with CFSE by adding 2 μM solution in PBS, to get a final 1 μM CFSE solution. Cells were incubated while rotating for 5 minutes. Reaction was stopped by adding PBS with 10% FBS and cells were centrifuged for 5 minutes at 1500 rpm.
Cells were resuspended at 1.6×10^6 cells/mL, either in X-VIVO15 medium or in 4% Human Serum Albumin and 0.2% α-1-Acid Glycoprotein. 50 μL of cell suspension (8×10^4 T cells) was added to wells of sterile round-bottom 96-well plates. Cells were activated by adding 50 μL of anti-CD3 anti-CD28 coated microbeads, suspended either in XVIVO-15 medium or in 4% HSA and 0.2% α-1-Acid Glycoprotein, at a ratio of one microbead per two cells.
Serial dilutions of the ENT1 inhibitors were prepared in X-VIVO15 from 10 mM stock solutions in DMSO, and 50 μL was added to the wells.
ATP powder was diluted in X-VIVO15, and 50 μL of this compound was added to the wells to reach a final assay concentration of 100 μM. Final volume of 200 μL.
The experiments were also performed in 384 well plates—all volumes reduced by a factor of 4 ([…]) with a final volume of 50 μL.
Experiments were performed in duplicate. The cells were placed in a 37° C. humidified tissue culture incubator with 5% CO2 for 72 hours for 96 well plates, 96 hours for 384 well plates. After 72 or 96 hours, proliferation was measured determined by CFSE dilution via flow cytometry.
Results. Compounds of the invention have good ENT1 inhibitory properties.

[4] = test system: human alpha 1-acid glycoprotein (AAG); experiment: AAG binding assay - HPLC assay
Procedure: Purpose. […] The principle of the assay is a liquid chromatography on a human AAG protein immobilized onto a silica support for separations of compounds following their affinity to AAG protein. By measuring the retention time, the binding to AAG can be determined relatively to the references.
Method. […] Mobile Phase A: 50 mM Ammonium acetate in deionized water; Mobile Phase B: Isopropanol; Column Oven: 8° C.; PDA(nm): 230; Flow Rate (mL/min): 0.2. Test Concentration (μmol/L): 100 (from 10 mmol/L DMSO solution diluted 100 folds by 50 mM Ammonium acetate in deionized water: Isopropanol (1:1)). Generic Gradient: Time (min): 0.01; 5; 13; 14; 20.

[5] = Condition A: X-VIVO15, read-out: TCell proliferation (Condition A) IC50
[6] = Condition B: X-VIVO15, 2% HSA and 0.1% AAG, read-out: TCell proliferation (Condition B) IC50

| SMILES | IC50 (human ENT1 [1]) [nM] | IC50 (human ENT1 [2]) [nM] | IC50 [3, 5] [nM] | IC50 [3, 6] [nM] | retention time (rt) on immobilized human AAG column ([4]; human, 100 μmol/L) [min] | AAG HPLC ([4]; AAG binding by HPLC retention time (rt) on CHIRALPAK AGP column, binned) |
| --- | --- | --- | --- | --- | --- | --- |
| COCCN(CCOC)c1nc(N2CCC(OC)CC2)c2nc(N(CCO)Cc3cc(OC)c(OC)c(OC)c3)nc(N3CCC(OC)CC3)c2n1 [Compound 186, 2-((6-(bis(2-methoxyethyl)amino)-4,8-bis(4-methoxypiperidin-1-yl)pyrimido[5,4-d]pyrimidin-2-yl)(3,4,5-trimethoxybenzyl)amino)ethanol] | < 100 | < 100 | < 100 | 100 to 500 |  |  |
| COCCN(CCOC)c1nc(N2CCC(OC)CC2)c2nc(N(CCOC)CCOC)nc(NCc3ccc(F)c(C#N)c3)c2n1 [Compound 149, 5-(((2,6-bis(bis(2-methoxyethyl)amino)-8-(4-methoxypiperidin-1-yl)pyrimido[5,4-d]pyrimidin-4-yl)amino)methyl)-2-fluorobenzonitrile] | < 100 | < 100 | 100 to 500 | 100 to 500 |  |  |
| COCCN(CCOC)c1nc(N2CCC(OC)CC2)c2nc(N(CCOC)Cc3cc(OC)c(OC)c(OC)c3)nc(N3CCC(OC)CC3)c2n1 [Compound 184, N2,N2,N6-tris(2-methoxyethyl)-4,8-bis(4-methoxypiperidin-1-yl)-N6-(3,4,5-trimethoxybenzyl)pyrimido[5,4-d]pyrimidine-2,6-diamine] | < 100 | < 100 | < 100 | < 100 |  |  |
| COCCN(CCOC)c1nc(N2CCC(OC)CC2)c2nc(N(CCOC)CCOC)nc(N(C)Cc3cccc(OC)c3)c2n1 [Compound 171, N4-(3-methoxybenzyl)-N2,N2,N6,N6-tetrakis(2-methoxyethyl)-8-(4-methoxypiperidin-1-yl)-N4-methylpyrimido[5,4-d]pyrimidine-2,4,6-triamine] | < 100 | < 100 | 100 to 500 | 100 to 500 |  |  |
| COCCN(CCOC)c1nc(N2CCC(OC)CC2)c2nc(N(CCOC)CCOC)nc(N(C)Cc3cccnc3)c2n1 [Compound 81, N2,N2,N6,N6-tetrakis(2-methoxyethyl)-8-(4-methoxypiperidin-1-yl)-N4-methyl-N4-(pyridin-3-ylmethyl)pyrimido[5,4-d]pyrimidine-2,4,6-triamine] | < 100 | < 100 | 100 to 500 | 500 to 1000 |  |  |
| CC(C)NCC(O)COc1cccc2ccccc12 (stereo not drawn) [Propranolol, reference compound] |  |  |  |  | 14.05 |  |
| COCCN(CCOC)c1nc(N2CCCC3(COC3)C2)c2nc(N(CCOC)CCOC)nc(N3CCC(OC)CC3)c2n1 [Compound 97, N2,N2,N6,N6-tetrakis(2-methoxyethyl)-4-(4-methoxypiperidin-1-yl)-8-(2-oxa-6-azaspiro[3.5]nonan-6-yl)pyrimido[5,4-d]pyrimidine-2,6-diamine] | < 100 |  |  |  |  | −− (rt below 6 min: −−) |
| CCCN(C)c1nc(N(CCOC)CCOC)nc2c(N3CCC(OC)CC3)nc(N(CCOC)CCOC)nc12 [Compound 68, N2,N2,N6,N6-tetrakis(2-methoxyethyl)-8-(4-methoxypiperidin-1-yl)-N4-methyl-N4-propylpyrimido[5,4-d]pyrimidine-2,4,6-triamine] | < 100 | < 100 | 500 to 1000 | 500 to 1000 |  |  |
| CCCN(C)c1nc(N(CCOC)CCOC)nc2c(N3CCN(C)C(=O)C3)nc(N(CCOC)CCOC)nc12 [Compound 191, 4-(2,6-bis(bis(2-methoxyethyl)amino)-8-(methyl(propyl)amino)pyrimido[5,4-d]pyrimidin-4-yl)-1-methylpiperazin-2-one] | 100 to 500 |  |  |  |  |  |
| COCCN(CCOC)c1nc(N2CCC(OC)CC2)c2nc(N(CCOC)CCOC)nc(NCCCCC#N)c2n1 [Compound 179, 5-((2,6-bis(bis(2-methoxyethyl)amino)-8-(4-methoxypiperidin-1-yl)pyrimido[5,4-d]pyrimidin-4-yl)amino)pentanenitrile] | 100 to 500 |  |  |  |  |  |
| COCCN(CCOC)c1nc(N2CCN(c3ncn(C)n3)CC2)c2nc(N(CCOC)CCOC)nc(N(C)Cc3cccc(F)c3)c2n1 [Compound 241, N4-(3-fluorobenzyl)-N2,N2,N6,N6-tetrakis(2-methoxyethyl)-N4-methyl-8-(4-(1-methyl-1H-1,2,4-triazol-3-yl)piperazin-1-yl)pyrimido[5,4-d]pyrimidine-2,4,6-triamine] | 100 to 500 |  |  |  |  |  |
| COCCN(CCOC)c1nc(N2CCN(C)C(=O)C2)c2nc(N(CCOC)CCOC)nc(NCc3cccc(S(C)(=O)=O)c3)c2n1 [Compound 212, 4-(2,6-bis(bis(2-methoxyethyl)amino)-8-((3-(methylsulfonyl)benzyl)amino)pyrimido[5,4-d]pyrimidin-4-yl)-1-methylpiperazin-2-one] | 500 to 1000 |  |  |  |  |  |
| COCCN(CCOC)c1nc(N2CCC(OC)CC2)c2nc(N(CCOC)CCC(N)=O)nc(N3CCC(OC)CC3)c2n1 [Compound 197, 3-((6-(bis(2-methoxyethyl)amino)-4,8-bis(4-methoxypiperidin-1-yl)pyrimido[5,4-d]pyrimidin-2-yl)(2-methoxyethyl)amino)propanamide] | 500 to 1000 |  |  |  |  |  |
| COCCN(CCOC)c1nc(N2CCN(C)C(=O)C2)c2nc(N(CCOC)CCOC)nc(NCc3cccc(C(N)=O)c3)c2n1 [Compound 203, 3-(((2,6-bis(bis(2-methoxyethyl)amino)-8-(4-methyl-3-oxopiperazin-1-yl)pyrimido[5,4-d]pyrimidin-4-yl)amino)methyl)benzamide] | 100 to 500 |  |  |  |  |  |
| COCCCN(CCCOC)c1nc(N2CCC(OC)CC2)c2nc(N(CCCO)CCCO)nc(N3CCC(OC)CC3)c2n1 [Compound 330, 3,3′-((6-(bis(3-methoxypropyl)amino)-4,8-bis(4-methoxypiperidin-1-yl)pyrimido[5,4-d]pyrimidin-2-yl)azanediyl)bis(propan-1-ol)] | 100 to 500 |  |  |  |  |  |
| COCCN(CCOC)c1nc(N2CCn3ncnc3C2)c2nc(N(CCOC)CCOC)nc(N3CCn4ncnc4C3)c2n1 [Compound 9, 4,8-bis(5,6-dihydro-[1,2,4]triazolo[1,5-a]pyrazin-7(8H)-yl)-N2,N2,N6,N6-tetrakis(2-methoxyethyl)pyrimido[5,4-d]pyrimidine-2,6-diamine] | 100 to 500 |  |  |  |  |  |
| COCCN(CCOC)c1nc(N2CC(=O)N3CCCC3C2)c2nc(N(CCO)CCO)nc(N3CCC(OC)CC3)c2n1 (stereo not drawn) [Compound 314, 2-(6-(bis(2-hydroxyethyl)amino)-2-(bis(2-methoxyethyl)amino)-8-(4-methoxypiperidin-1-yl)pyrimido[5,4-d]pyrimidin-4-yl)hexahydropyrrolo[1,2-a]pyrazin-4(1H)-one] | 500 to 1000 |  |  |  |  |  |
